{"source": "patent EP3270157B1", "about": "“SCREENING ASSAY FOR SWEETNESS” (Firmenich SA, priority 2016, dated 2018)", "target": "T1, T1R2/T1R3 receptor (Homo sapiens, UniProt Q7RTX0+Q8TE23)", "T1 sequence (Q8TE23 20-839)": "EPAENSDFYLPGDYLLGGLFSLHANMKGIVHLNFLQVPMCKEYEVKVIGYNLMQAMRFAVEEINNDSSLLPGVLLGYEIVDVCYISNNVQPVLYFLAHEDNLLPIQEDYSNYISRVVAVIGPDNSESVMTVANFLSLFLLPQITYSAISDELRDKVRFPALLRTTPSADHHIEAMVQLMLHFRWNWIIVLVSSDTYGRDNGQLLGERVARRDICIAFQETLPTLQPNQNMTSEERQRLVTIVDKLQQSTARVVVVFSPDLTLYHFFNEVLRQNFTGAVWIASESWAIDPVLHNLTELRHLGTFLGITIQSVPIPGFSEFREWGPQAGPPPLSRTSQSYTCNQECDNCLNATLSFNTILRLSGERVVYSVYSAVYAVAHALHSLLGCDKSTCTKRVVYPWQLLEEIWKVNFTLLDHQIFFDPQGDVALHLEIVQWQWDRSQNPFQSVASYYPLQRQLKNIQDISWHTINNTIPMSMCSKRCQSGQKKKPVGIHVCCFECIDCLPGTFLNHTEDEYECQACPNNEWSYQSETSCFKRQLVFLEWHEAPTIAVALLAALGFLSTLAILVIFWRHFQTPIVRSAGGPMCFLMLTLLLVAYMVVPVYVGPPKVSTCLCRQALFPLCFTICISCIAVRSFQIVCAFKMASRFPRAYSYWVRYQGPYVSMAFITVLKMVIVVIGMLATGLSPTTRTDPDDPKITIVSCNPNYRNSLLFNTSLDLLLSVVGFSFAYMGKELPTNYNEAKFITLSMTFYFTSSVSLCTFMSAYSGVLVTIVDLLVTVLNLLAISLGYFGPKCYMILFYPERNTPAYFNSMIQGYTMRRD", "T1 sequence (Q7RTX0 21-852)": "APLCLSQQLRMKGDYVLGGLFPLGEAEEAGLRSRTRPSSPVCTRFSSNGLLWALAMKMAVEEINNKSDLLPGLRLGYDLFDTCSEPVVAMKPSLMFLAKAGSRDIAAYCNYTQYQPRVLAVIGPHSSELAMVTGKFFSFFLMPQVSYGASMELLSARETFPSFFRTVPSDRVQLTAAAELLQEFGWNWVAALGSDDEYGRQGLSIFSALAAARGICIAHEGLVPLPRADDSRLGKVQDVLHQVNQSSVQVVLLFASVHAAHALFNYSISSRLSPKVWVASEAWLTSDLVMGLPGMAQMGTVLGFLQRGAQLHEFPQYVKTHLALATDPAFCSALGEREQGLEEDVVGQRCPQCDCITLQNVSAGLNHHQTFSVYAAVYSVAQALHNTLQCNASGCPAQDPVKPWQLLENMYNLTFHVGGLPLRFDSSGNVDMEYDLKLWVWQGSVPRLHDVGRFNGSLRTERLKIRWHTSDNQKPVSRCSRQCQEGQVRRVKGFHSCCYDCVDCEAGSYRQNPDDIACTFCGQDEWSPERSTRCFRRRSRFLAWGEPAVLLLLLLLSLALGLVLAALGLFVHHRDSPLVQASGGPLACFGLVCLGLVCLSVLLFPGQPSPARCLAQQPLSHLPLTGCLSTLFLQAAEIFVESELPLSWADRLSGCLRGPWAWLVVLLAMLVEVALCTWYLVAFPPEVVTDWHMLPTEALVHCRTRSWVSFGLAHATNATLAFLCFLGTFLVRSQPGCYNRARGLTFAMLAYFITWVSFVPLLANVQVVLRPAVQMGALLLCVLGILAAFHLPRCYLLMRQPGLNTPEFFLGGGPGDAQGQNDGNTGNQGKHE", "conditions": "for increase of chemiluminescence signal / internalisation response with concentration: shape of dose-response curve, Fig. 6A and 6B; for sensitivity of the assay to initiate receptor internalisation: comparison among the sweet compounds tested", "key": {"[1]": {"conditions": "Clone #1057 cells, 3 h at 20°C, n=3, Fig. 6"}, "[2]": {"conditions": "Clone #1057 cells, % (w/v), Fig. 6"}}, "note": "Read-outs that look alike come from different tables or passages of the source.", "excerpt": "Binding of beta-arrestin will then stimulate receptor internalisation to the endosome, bringing the EA (enzyme part fused to beta-arrestin) and ProLink (enzyme part fused to the endosome) enzyme parts of beta-gal in close proximity to each other, enabling the formation of a functional beta-gal enzyme. The level of functional beta-Gal formed is a measure for ligand-induced receptor internalisation activity and is quantified by lysing cells using the PathHunter™ substrate mix, allowing the conversion of substrate to chemiluminescence.\nPathHunter™HEK293 Active Internalisation Parental cells (HEK-293 cells natively expressing the sweet taste receptor and comprising the enzyme complementation system) were maintained in high glucose Dulbecco's modified Eagle's medium (4.5 g/l D-glucose, L-glutamine, HEPES) supplemented with 10% fetal bovine serum (DMEM-HG) at 37°C, 5% CO2 and 90% humidity.\nFor the beta-arrestin mediated internalization assay cells were grown and maintained in DMEM-HG. […] After 18 h of glucose starvation, cells were seeded in DMEM-LG at a density of 2.5×10^4 cells per well in a clear Poly-D-Lysine coated 96-well plate (CellCoat; Greiner Bio-One GmbH, Frickenhausen, Germany) and incubated for 24 h. Next, the PathHunter™ Detection assay kit was used for receptor stimulation according to the manufacturer's instructions. […] After 3 h of incubation at 20°C, the stimulant was removed and PathHunter™ substrate was added in 100 µl CP10 Cell Plating Reagents. Luminescence was measured using an Infinite F200 (Tecan Group Ltd., Männedorf, Switzerland). Analysis was performed in triplicates (n=3). Data are presented as the mean luminescence change (ΔF) over the base-line level (F): ΔF/F = (F(stimulant)−F(negativecontrol))/F(negativecontrol).", "data": [{"smiles": "OC[C@@H](O)[C@@H](O[C@H]1O[C@H](CO)[C@@H](O)[C@H](O)[C@H]1O)[C@H](O)[C@@H](O)CO", "note": "[maltitol]", "values": [{"measurement": "maximum level of chemiluminescence (ΔF/Fmax)", "setting": "[1]", "value": "nearly equal"}, {"measurement": "concentration at which the maximum response (ΔF/Fmax) was reached", "setting": "[2]", "value": 17.0, "unit": "%"}]}, {"smiles": "OC[C@H]1O[C@@](CO)(O[C@H]2O[C@H](CO)[C@@H](O)[C@H](O)[C@H]2O)[C@@H](O)[C@@H]1O", "note": "[sucrose]", "values": [{"measurement": "increase of chemiluminescence signal / internalisation response with concentration", "value": "rather slow increase"}]}, {"smiles": "OC[C@H]1O[C@H](O[C@H]2[C@H](O)[C@@H](O)[C@H](O)O[C@@H]2CO)[C@H](O)[C@@H](O)[C@@H]1O", "note": "[maltose]", "values": [{"measurement": "concentration at which the maximum response (ΔF/Fmax) was reached", "setting": "[2]", "value": 16.5, "unit": "%"}, {"measurement": "sensitivity of the assay to initiate receptor internalisation", "setting": "Fig. 6", "value": "lowest sensitivity of the natural sugars tested"}, {"measurement": "increase of chemiluminescence signal / internalisation response with concentration", "value": "steep increase"}]}, {"smiles": "CC1=CC(=O)NS(=O)(=O)O1", "note": "[acesulfame-K]", "values": [{"measurement": "concentration at which the maximum response (ΔF/Fmax) was reached", "value": 5.5, "unit": "%"}]}, {"smiles": "OC[C@H]1O[C@H](O[C@]2(CCl)O[C@H](CCl)[C@@H](O)[C@@H]2O)[C@H](O)[C@@H](O)[C@H]1Cl", "note": "[sucralose]", "values": [{"measurement": "concentration at which the maximum response (ΔF/Fmax) was reached", "setting": "[2]", "value": 15, "unit": "%"}, {"measurement": "concentration at which receptor internalisation responses were initiated", "setting": "Clone #1057 cells, Fig. 6", "value": "already observed at the lowest concentration tested"}, {"measurement": "sensitivity of the assay to initiate receptor internalisation", "setting": "Fig. 6", "value": "high sensitivity"}]}, {"smiles": "OC[C@@H](O)[C@@H](O)[C@H](O)[C@H](O)CO", "note": "[mannitol]", "values": [{"measurement": "maximum level of chemiluminescence (ΔF/Fmax)", "setting": "[1]", "value": "nearly equal"}, {"measurement": "concentration at which the maximum response (ΔF/Fmax) was reached", "setting": "[2]", "value": 7.7, "unit": "%"}]}, {"smiles": "O=C(CO)[C@@H](O)[C@H](O)[C@H](O)CO", "note": "[fructose]", "values": [{"measurement": "concentration at which the maximum response (ΔF/Fmax) was reached", "setting": "[2]", "value": 9, "unit": "%"}, {"measurement": "sensitivity of the assay to initiate receptor internalisation", "setting": "Fig. 6", "value": "highest sensitivity"}, {"measurement": "maximum level of chemiluminescence (ΔF/Fmax)", "setting": "human, hek293 cells, 3 h", "value": 5.2}, {"measurement": "increase of chemiluminescence signal / internalisation response with concentration", "value": "rather slow increase"}]}]}
